# Measurements as given in ChEMBL document CHEMBL3132769, “Fragment growing to retain or alter the selectivity of anchored kinase hinge-binding fragments” (Medchemcomm, 2014).
# Columns and labels:
# [1] = molecular target: T1, Serine/threonine-protein kinase Sgk2 (Homo sapiens) (UniProt Q9HBY8); experiment: Inhibition of human full length SGK2 expressed in baculovirus assessed as substrate phosphorylation using fluorescence-labelled peptides as substrate at 9 uM after 90 mins by microfluidic peptide phosphorylation assay
# T1 sequence (whole entry): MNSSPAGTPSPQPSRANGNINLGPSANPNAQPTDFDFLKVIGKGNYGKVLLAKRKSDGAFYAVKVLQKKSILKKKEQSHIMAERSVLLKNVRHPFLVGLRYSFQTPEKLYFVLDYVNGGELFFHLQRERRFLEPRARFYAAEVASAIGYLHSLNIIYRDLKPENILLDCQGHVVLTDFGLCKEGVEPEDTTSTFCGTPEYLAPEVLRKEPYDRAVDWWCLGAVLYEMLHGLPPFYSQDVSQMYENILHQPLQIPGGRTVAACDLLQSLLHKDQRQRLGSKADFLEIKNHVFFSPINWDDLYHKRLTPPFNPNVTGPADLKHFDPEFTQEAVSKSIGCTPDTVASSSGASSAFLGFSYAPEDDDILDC
# [2] = molecular target: T2, cGMP-dependent protein kinase 1 (Homo sapiens) (UniProt Q13976); experiment: Inhibition of human full length PKG-1a expressed in baculovirus assessed as substrate phosphorylation using fluorescence-labelled peptides as substrate at 95 uM after 90 mins by microfluidic peptide phosphorylation assay
# T2 sequence (whole entry): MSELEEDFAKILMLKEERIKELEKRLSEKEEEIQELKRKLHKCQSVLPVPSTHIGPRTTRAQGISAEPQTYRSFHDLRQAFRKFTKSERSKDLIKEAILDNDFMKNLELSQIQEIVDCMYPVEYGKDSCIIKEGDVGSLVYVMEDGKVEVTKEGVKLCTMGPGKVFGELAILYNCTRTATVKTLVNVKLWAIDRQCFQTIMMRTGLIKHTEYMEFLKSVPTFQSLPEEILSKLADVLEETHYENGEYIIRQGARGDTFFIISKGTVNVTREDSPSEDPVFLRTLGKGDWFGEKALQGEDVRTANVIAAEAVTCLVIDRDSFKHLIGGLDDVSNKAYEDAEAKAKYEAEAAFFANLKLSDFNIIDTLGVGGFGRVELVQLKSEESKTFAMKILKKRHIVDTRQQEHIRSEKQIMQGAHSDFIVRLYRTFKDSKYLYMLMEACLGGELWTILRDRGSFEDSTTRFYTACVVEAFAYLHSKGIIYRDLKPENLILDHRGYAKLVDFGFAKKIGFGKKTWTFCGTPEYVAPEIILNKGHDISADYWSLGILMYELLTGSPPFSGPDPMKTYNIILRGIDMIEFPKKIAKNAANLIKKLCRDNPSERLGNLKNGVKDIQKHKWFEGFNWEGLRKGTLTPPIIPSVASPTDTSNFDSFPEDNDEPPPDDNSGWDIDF
# [3] = molecular target: Platelet-derived growth factor receptor alpha (Homo sapiens) (UniProt P16234); experiment: Inhibition of human PDGFR alpha catalytic domain expressed in baculovirus assessed as substrate phosphorylation using fluorescence-labelled peptides as substrate at […] after 90 mins by microfluidic peptide phosphorylation assay
# Platelet-derived growth factor receptor alpha (Homo sapiens), sequence (P16234 whole entry, the tested form may be a part): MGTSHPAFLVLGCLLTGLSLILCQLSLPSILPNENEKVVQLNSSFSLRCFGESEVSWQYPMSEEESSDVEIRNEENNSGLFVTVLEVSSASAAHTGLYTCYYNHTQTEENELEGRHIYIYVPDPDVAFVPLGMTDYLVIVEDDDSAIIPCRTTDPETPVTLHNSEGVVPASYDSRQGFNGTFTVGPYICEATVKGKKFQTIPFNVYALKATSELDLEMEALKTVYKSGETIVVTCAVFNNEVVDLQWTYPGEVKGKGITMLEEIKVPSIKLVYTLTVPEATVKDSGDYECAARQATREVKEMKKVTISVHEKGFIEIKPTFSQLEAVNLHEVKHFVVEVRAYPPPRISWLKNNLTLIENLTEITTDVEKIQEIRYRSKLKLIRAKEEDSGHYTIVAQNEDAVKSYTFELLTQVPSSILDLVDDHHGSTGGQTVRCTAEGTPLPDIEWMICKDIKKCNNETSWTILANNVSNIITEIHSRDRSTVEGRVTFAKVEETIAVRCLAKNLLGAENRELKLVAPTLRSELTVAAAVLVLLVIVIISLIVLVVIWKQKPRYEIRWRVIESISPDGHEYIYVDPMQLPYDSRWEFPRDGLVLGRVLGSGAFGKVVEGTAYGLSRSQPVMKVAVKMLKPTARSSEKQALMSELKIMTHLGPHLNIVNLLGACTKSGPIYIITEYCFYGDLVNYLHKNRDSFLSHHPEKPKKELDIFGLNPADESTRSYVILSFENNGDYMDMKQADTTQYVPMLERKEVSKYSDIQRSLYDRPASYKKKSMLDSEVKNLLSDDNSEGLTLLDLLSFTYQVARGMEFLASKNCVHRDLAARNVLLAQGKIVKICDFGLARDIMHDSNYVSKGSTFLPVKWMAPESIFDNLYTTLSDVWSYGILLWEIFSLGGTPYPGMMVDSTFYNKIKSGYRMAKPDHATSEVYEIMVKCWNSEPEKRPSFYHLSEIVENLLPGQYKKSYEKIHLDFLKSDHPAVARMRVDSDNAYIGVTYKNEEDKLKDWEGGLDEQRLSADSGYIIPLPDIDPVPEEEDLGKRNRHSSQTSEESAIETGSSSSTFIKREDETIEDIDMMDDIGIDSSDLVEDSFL
# [4] = molecular target: Glycogen synthase kinase-3 beta (Homo sapiens) (UniProt P49841); experiment: Inhibition of human full length GSK-3 beta expressed in baculovirus assessed as substrate phosphorylation using fluorescence-labelled peptides as substrate at 420 uM after 90 mins by microfluidic peptide phosphorylation assay
# Glycogen synthase kinase-3 beta (Homo sapiens), sequence (P49841 whole entry, looked up): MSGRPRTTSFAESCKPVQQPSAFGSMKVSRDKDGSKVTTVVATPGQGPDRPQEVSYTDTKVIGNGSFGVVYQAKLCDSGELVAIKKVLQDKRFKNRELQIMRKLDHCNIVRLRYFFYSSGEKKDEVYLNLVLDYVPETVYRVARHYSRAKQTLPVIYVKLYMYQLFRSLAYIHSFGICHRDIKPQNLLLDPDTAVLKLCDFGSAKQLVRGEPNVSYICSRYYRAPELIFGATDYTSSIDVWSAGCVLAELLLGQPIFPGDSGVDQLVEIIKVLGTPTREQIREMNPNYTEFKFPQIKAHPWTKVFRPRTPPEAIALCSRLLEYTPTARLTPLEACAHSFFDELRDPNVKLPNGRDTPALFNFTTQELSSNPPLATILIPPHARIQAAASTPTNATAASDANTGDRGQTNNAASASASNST
# [5] = molecular target: T3, Serine/threonine-protein kinase D1 (Homo sapiens) (UniProt Q15139); experiment: Inhibition of human full length PKD1 expressed in baculovirus assessed as substrate phosphorylation using fluorescence-labelled peptides as substrate at 0.2 uM after 90 mins by microfluidic peptide phosphorylation assay
# T3 sequence (whole entry): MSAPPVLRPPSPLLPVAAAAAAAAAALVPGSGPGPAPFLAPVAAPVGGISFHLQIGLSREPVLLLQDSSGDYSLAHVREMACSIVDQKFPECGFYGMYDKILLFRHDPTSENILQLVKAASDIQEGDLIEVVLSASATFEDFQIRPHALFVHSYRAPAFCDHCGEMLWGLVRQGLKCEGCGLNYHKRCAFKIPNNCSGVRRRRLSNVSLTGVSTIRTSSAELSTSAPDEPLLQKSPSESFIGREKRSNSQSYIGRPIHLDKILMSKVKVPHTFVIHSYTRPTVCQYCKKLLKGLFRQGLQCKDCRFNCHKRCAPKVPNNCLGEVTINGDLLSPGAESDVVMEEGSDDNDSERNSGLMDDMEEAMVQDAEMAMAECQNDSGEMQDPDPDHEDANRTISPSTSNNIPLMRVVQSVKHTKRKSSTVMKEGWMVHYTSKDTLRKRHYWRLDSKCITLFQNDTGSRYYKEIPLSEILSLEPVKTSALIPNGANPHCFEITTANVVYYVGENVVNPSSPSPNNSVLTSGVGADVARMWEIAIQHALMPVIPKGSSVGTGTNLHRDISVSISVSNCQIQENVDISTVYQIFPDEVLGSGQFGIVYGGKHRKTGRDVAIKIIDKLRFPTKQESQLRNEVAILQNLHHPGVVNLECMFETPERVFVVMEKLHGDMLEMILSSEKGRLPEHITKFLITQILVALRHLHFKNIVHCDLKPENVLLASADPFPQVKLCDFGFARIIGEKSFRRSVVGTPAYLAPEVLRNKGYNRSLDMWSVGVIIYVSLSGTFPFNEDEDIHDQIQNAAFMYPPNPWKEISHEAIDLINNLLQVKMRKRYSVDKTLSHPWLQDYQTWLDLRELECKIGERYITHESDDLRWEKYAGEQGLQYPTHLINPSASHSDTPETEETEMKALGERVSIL
# [6] = molecular target: T4, Mitogen-activated protein kinase 13 (Homo sapiens) (UniProt O15264); experiment: Inhibition of human full length p38 delta expressed in Escherichia coli cell assessed as substrate phosphorylation using fluorescence-labelled peptides as substrate at 2 uM after 90 mins by microfluidic peptide phosphorylation assay
# T4 sequence (whole entry): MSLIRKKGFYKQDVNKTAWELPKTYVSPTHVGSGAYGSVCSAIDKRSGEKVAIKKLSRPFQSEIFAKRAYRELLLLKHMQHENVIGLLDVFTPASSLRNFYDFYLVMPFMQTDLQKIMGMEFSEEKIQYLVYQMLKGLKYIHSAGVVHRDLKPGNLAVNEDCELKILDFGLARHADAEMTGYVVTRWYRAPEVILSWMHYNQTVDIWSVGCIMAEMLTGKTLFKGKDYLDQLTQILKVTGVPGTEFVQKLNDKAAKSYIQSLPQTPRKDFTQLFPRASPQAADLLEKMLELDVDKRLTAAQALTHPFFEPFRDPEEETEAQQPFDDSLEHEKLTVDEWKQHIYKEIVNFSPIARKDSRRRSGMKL
# [7] = molecular target: Ribosomal protein S6 kinase alpha-1 (Homo sapiens) (UniProt Q15418); experiment: Inhibition of human full length RSK1 expressed in baculovirus assessed as substrate phosphorylation using fluorescence-labelled peptides as substrate at 2 uM after 90 mins by microfluidic peptide phosphorylation assay
# Ribosomal protein S6 kinase alpha-1 (Homo sapiens), sequence (Q15418 whole entry, the tested form may be a part): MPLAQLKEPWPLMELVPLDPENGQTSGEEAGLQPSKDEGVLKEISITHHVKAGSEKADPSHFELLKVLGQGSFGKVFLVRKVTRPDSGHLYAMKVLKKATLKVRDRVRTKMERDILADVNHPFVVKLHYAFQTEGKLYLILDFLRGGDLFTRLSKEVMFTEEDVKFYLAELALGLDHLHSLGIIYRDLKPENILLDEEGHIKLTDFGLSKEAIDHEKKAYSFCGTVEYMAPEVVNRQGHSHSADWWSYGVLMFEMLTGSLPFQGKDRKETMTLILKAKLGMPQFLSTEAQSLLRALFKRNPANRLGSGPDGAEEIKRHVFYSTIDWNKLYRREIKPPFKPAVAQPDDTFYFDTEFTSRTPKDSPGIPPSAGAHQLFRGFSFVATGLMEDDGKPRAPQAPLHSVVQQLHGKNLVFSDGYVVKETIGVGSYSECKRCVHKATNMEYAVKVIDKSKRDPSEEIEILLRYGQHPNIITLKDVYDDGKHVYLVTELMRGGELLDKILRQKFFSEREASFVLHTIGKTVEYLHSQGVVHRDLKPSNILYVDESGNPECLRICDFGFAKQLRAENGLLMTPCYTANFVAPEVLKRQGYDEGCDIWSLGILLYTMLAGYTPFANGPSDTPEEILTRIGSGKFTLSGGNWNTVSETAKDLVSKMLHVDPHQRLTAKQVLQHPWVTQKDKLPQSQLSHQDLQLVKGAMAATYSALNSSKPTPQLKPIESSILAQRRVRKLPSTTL
# [8] = molecular target: Insulin-like growth factor 1 receptor (Homo sapiens) (UniProt P08069); experiment: Inhibition of human IGF1R catalytic domain expressed in baculovirus assessed as substrate phosphorylation using fluorescence-labelled peptides as substrate at 1000 uM after 90 mins by microfluidic peptide phosphorylation assay
smiles,measurement,setting,value
NCC1CN(c2ncnc3[nH]c4cnccc4c23)CCO1 (stereo not drawn),inhibition,[1],48.5%
NCCc1ccc(-c2ncnc3[nH]cnc23)cc1,inhibition,[2],92%
COC(=O)c1cnc(Nc2cnc(C#N)cn2)cc1NCC1CCNCC1,inhibition,[3],9.5%
c1nc(N2CCOCC2)c2nc[nH]c2n1,inhibition,[4],90%
Clc1ccc(C2(c3ccc(-c4ncnc5[nH]cnc45)cc3)CCNCC2)cc1,inhibition,[5],8%
NC1CCN(c2ncnc3[nH]ccc23)CC1,inhibition,[6],8%
same,inhibition,[7],7.5%
c1cnc2[nH]ccc2c1,inhibition,[8],51.5%
